Source: US7880010B2, “Crystalline forms of a dimethylphenyl compound” (Theravance, Inc., priority 2006, dated 2011)

Experiments:
hM2 receptor [1] = biological target: T1, hM2 receptor (Homo sapiens, UniProt P08172); assay: Blockade of agonist-mediated inhibition of cAMP accumulation (Assay A); format: cell-based; conditions: CHO-K1 cells expressing the hM2 receptor
T1 construct: expressed in transfected cells; host or cells: CHO / CHO-K1
T1 sequence (P08172 1-466): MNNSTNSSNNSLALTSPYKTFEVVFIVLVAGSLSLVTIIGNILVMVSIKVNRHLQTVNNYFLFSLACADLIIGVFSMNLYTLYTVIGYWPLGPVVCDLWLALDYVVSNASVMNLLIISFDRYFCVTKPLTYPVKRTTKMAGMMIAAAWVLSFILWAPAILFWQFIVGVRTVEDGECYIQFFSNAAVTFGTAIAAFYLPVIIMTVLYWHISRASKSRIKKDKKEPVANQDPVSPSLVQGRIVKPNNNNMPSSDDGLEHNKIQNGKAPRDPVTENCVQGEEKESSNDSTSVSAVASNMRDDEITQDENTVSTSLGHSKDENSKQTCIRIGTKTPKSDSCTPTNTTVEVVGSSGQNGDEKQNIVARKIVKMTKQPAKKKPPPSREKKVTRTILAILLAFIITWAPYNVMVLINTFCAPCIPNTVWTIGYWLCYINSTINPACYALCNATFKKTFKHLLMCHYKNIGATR
Method: In this assay, the functional potency of a test compound as an antagonist for the hM2 receptor was determined by measuring the ability of the test compound to block oxotremorine-inhibition of forskolin-mediated cAMP accumulation in CHO-K1 cells expressing the hM2 receptor. cAMP assays were performed in a radioimmunoassay format using the Flashplate Adenylyl Cyclase Activation Assay System with ^125I-cAMP (NEN SMP004B, PerkinElmer Life Sciences Inc., Boston, Mass.), according to the manufacturer's instructions. Cells were rinsed once with dPBS and lifted with Trypsin-EDTA solution (0.05% trypsin/0.53 mM EDTA) as described in the Cell Culture and Membrane Preparation section above. The detached cells were washed twice by centrifugation at 650×g for five minutes in 50 mL dPBS. The cell pellet was then re-suspended in 10 mL dPBS, and the cells were counted with a Coulter Z1 Dual Particle Counter (Beckman Coulter, Fullerton, Calif.). […]
Reactions were incubated for 10 minutes at 37° C. and stopped by addition of 100 μL ice-cold detection buffer. Plates were sealed, incubated overnight at room temperature and counted the next morning on a PerkinElmer TopCount liquid scintillation counter (PerkinElmer Inc., Wellesley, Mass.). The amount of cAMP produced (pmol/well) was calculated based on the counts observed for the samples and cAMP standards, as described in the manufacturer's user manual. […]

hM2 receptor [2] = biological target: T1, hM2 receptor; assay: Blockade of agonist-mediated [35S]GTPγS binding (Assay B); format: biochemical; conditions: CHO-K1 cells expressing the hM2 receptor
Method: In this functional assay, the functional potency of a test compound as an antagonist of the hM2 receptor was determined by measuring the ability of the test compound to block oxotremorine-stimulated [^35S]GTPγS binding in CHO-K1 cells expressing the hM2 receptor.
At the time of use, frozen membranes were thawed and then diluted in assay buffer with a final target tissue concentration of 5 to 10 μg protein per well. The membranes were briefly homogenized using a Polytron PT-2100 tissue disrupter and then added to the assay plates.
The EC90 value (effective concentration for 90% maximal response) for stimulation of [^35S]GTPγS binding by the agonist oxotremorine was determined in each experiment.
To determine the ability of a test compound to inhibit oxotremorine-stimulated [^35S]GTPγS binding, the following was added to each well of 96 well plates: 25 μL of assay buffer with [^35S]GTPγS (0.4 nM), 25 μL of oxotremorine(EC90) and GDP (3 uM), 25 μL of diluted test compound and 25 μL CHO cell membranes expressing the hM2 receptor. […] Microscint-20 scintillation liquid (50 μL) was added to each well, and each plate was sealed and radioactivity counted on a Topcounter (PerkinElmer). Data were analyzed by nonlinear regression analysis with the GraphPad Prism Software package (GraphPad Software, Inc., San Diego, Calif.) using the non-linear regression, one-site competition equation. […]

Q: What does the source list for Cc1cc(NC(=O)CCN2CCC(OC(=O)Nc3ccccc3-c3ccccc3)CC2)c(C)cc1CNC[C@H](O)c1ccc(O)c(NC=O)c1 [compound of formula I, biphenyl-2-ylcarbamic acid 1-[2-(4-{[(R)-2-(3-formylamino-4-hydroxyphenyl)-2-hydroxyethylamino]methyl}-2,5-dimethylphenylcarbamoyl)ethyl]-piperidin-4-yl ester]?
A: Kobs for blockade of oxotremorine-inhibition of forskolin-mediated cAMP accumulation (hM2 receptor [1]): less than 10 nM; Kobs for blockade of oxotremorine-stimulated [35S]GTPγS binding (hM2 receptor [2]): less than 10 nM
